Source: the kinase profiling compilation of Christmann-Franck et al. (2016)

Assays:
Assay in all cases: KINOMEscan competition binding
Settings in all cases: compound 10.0 µM
[1] = biological target: ANKK1 (human) (UniProt Q8NFD2)
[2] = biological target: AXL (human) (UniProt P30530)
[3] = biological target: CAMK2B (human) (UniProt Q13554)
[4] = biological target: CAMK2D (human) (UniProt Q13557)
[5] = biological target: CDK13 (human) (UniProt Q14004)
[6] = biological target: CDKL5 (human) (UniProt O76039)
[7] = biological target: CSNK1A1L (human) (UniProt Q8N752)
[8] = biological target: CaMK1 (human) (UniProt Q14012)
[9] = test system: EGFR (human), P00533 [A750P; 747-749 del]
[10] = biological target: EIF2AK2 (human) (UniProt P19525)
[11] = biological target: EPHB2 (human) (UniProt P29323)
[12] = biological target: ICK (human) (UniProt Q9UPZ9)
[13] = biological target: INSRR (human) (UniProt P14616)
[14] = biological target: ITK (human) (UniProt Q08881)
[15] = biological target: LCK (human) (UniProt P06239)
[16] = biological target: MAP3K4 (human) (UniProt Q9Y6R4)
[17] = biological target: MAP3K6 (human) (UniProt O95382)
[18] = biological target: MAP4K1 (human) (UniProt Q92918)
[19] = biological target: MAPKAPK2 (human) (UniProt P49137)
[20] = biological target: MST1R (human) (UniProt Q04912)
[21] = test system: PIK3CA (human), P42336 [E545A]
[22] = biological target: PIK3CB (human) (UniProt P42338)
[23] = biological target: PIK3CD (human) (UniProt O00329)
[24] = biological target: PIM3 (human) (UniProt Q86V86)
[25] = test system: RET (human), P07949 [M918T]
[26] = biological target: RIPK1 (human) (UniProt Q13546)
[27] = biological target: RIPK4 (human) (UniProt P57078)
[28] = biological target: RPS6KA3 KD1 (human) (UniProt P51812)
[29] = biological target: RPS6KA4 KD1 (human) (UniProt O75676)
[30] = biological target: SGK3 (human) (UniProt Q96BR1)
[31] = biological target: SRPK2 (human) (UniProt P78362)
[32] = biological target: STK10 (human) (UniProt O94804)
[33] = biological target: STK16 (human) (UniProt O75716)
[34] = biological target: STK17A (human) (UniProt Q9UEE5)
[35] = biological target: STK17B (human) (UniProt O94768)
[36] = biological target: STK38 (human) (UniProt Q15208)
[37] = biological target: TIE1 (human) (UniProt P35590)
[38] = biological target: TTK (human) (UniProt P33981)
[39] = biological target: TXK (human) (UniProt P42681)
[40] = biological target: ULK2 (human) (UniProt Q8IYT8)
[41] = biological target: ULK3 (human) (UniProt Q6PHR2)

MAP3K6 (human), sequence (O95382 whole entry, looked up): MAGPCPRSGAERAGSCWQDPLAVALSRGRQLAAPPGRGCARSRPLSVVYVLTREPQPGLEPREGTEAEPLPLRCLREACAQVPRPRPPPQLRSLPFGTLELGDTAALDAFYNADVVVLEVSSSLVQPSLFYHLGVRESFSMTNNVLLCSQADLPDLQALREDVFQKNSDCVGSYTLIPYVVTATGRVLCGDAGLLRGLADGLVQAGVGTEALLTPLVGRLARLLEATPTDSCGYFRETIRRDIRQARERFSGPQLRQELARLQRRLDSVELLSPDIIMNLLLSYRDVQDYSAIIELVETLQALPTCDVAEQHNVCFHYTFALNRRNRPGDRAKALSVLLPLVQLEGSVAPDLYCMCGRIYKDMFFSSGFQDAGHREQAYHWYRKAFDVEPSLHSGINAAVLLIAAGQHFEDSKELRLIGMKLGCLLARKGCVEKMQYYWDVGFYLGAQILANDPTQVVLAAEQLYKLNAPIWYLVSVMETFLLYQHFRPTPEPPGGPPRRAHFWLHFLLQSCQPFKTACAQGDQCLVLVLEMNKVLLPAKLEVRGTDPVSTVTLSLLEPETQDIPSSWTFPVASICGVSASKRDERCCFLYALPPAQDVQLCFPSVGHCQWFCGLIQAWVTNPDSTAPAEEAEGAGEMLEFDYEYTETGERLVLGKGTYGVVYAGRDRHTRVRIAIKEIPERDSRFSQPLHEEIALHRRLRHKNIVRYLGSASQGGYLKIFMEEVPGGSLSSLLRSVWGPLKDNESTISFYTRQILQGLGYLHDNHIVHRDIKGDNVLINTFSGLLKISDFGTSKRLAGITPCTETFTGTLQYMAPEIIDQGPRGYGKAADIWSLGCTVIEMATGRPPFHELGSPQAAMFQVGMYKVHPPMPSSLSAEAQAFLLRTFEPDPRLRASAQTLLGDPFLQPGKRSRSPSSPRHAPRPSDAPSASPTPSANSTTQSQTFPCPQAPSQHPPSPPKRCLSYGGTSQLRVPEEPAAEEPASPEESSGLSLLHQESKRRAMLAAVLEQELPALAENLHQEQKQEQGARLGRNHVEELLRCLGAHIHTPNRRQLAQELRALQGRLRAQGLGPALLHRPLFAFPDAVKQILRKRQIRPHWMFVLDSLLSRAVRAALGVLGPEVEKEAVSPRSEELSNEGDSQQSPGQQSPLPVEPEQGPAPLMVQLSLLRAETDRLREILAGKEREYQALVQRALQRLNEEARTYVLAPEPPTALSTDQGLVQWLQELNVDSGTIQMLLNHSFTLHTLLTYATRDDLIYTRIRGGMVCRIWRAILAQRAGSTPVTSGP
CDK13 (human), sequence (Q14004 whole entry, looked up): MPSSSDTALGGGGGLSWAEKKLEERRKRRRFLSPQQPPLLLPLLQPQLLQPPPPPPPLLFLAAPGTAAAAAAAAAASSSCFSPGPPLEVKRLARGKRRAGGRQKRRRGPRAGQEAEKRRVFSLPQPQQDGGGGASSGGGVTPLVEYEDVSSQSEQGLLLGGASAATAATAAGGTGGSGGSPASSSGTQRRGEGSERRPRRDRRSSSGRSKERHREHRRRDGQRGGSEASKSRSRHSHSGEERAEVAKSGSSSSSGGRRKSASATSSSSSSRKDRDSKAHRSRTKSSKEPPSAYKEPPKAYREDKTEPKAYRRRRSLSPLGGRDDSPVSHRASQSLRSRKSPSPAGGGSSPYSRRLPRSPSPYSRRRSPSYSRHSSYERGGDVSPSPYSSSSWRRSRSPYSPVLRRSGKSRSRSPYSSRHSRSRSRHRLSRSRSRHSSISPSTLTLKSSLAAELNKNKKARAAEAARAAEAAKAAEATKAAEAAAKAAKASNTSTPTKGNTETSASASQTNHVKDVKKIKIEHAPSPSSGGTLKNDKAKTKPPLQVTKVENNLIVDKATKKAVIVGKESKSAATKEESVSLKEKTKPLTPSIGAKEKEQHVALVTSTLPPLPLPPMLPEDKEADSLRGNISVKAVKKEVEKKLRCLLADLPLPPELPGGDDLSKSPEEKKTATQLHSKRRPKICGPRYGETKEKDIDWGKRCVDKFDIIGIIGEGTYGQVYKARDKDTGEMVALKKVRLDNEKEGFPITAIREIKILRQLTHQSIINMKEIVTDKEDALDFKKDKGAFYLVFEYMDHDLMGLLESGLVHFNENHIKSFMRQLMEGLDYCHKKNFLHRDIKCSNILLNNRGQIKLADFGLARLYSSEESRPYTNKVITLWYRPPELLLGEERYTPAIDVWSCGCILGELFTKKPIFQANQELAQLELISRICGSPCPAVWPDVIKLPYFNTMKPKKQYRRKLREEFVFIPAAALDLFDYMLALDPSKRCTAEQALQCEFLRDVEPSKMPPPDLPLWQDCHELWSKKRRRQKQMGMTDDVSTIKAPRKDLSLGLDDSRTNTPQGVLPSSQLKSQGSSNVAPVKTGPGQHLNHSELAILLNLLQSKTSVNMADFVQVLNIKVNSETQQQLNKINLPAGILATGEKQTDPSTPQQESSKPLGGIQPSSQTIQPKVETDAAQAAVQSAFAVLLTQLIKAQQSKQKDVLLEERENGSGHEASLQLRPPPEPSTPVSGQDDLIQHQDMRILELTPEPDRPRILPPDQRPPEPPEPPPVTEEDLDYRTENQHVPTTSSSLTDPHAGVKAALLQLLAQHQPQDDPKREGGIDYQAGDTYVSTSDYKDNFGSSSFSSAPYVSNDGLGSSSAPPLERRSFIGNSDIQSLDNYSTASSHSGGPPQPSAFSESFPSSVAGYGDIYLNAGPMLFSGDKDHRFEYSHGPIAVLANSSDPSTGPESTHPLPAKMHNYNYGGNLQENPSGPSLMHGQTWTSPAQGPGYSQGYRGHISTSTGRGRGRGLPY
TXK (human), sequence (P42681 whole entry, looked up): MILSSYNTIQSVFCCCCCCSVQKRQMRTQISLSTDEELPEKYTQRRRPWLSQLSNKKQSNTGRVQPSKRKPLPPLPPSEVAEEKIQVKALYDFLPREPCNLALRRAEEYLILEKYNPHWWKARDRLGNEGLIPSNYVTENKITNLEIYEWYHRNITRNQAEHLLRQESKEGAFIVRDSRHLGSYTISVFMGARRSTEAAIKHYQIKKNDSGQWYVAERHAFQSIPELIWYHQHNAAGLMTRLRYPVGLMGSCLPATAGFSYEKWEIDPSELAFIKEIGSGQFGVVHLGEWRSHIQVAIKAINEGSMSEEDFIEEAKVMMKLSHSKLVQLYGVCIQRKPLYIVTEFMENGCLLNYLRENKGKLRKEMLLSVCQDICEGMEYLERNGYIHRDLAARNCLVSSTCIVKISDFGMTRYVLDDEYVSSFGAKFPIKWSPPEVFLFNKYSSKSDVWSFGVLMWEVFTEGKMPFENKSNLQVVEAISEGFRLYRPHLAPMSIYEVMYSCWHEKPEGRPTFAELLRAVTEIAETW
ITK (human), sequence (Q08881 whole entry, looked up): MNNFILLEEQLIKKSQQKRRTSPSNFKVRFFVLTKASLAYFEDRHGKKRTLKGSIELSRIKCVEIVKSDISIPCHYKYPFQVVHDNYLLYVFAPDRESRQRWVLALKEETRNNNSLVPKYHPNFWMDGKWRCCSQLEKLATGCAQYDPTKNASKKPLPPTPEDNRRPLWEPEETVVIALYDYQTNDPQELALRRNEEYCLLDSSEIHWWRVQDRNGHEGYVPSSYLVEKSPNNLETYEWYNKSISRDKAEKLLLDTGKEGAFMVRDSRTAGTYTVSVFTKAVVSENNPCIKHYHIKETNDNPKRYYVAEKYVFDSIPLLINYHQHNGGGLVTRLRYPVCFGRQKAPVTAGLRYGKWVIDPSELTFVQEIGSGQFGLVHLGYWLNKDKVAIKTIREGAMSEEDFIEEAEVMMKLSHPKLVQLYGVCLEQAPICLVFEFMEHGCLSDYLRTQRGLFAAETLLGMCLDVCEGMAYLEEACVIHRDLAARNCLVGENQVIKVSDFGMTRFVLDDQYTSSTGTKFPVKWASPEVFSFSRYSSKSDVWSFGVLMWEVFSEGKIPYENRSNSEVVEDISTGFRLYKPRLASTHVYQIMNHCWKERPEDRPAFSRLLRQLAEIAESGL
PIK3CA (human), P42336 [E545A], sequence (P42336 whole entry E545A, looked up): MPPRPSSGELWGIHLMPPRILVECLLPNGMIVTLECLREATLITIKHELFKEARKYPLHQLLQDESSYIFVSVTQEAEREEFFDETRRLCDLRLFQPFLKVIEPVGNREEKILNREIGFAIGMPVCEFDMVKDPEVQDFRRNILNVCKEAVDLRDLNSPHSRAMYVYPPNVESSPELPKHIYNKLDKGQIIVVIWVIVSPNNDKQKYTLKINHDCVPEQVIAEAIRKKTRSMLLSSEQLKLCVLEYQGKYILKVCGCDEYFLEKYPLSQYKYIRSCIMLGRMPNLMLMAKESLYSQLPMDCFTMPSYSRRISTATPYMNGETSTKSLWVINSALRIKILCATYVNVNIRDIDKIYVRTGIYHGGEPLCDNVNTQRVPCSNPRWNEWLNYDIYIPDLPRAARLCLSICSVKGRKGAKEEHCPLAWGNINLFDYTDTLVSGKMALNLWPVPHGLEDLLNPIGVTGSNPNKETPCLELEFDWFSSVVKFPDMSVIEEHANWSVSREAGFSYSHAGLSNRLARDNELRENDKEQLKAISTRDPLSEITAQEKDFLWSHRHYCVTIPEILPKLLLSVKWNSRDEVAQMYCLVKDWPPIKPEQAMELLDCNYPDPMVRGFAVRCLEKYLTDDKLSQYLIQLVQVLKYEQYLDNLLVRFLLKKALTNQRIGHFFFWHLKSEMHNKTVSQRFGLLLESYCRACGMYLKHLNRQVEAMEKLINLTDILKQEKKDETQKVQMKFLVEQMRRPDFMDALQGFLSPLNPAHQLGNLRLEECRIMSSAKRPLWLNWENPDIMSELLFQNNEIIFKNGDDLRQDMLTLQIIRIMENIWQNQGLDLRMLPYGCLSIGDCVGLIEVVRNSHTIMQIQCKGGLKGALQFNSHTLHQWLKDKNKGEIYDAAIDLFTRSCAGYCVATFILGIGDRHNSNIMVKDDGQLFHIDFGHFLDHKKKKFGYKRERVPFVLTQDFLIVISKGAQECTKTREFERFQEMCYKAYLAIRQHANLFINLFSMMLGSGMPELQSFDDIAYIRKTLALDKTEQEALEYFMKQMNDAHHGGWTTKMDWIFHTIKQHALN

SMILES: COC(=O)Nc1ccc(-c2nc(N3CCOCC3)c3cnn(C4CCN(C(=O)OC)CC4)c3n2)cc1
- kinase still bound, per cent of control [1]: 97%
- kinase still bound, per cent of control [2]: 100%
- kinase still bound, per cent of control [3]: 100%
- kinase still bound, per cent of control [4]: 100%
- per cent of control [5]: 100%
- per cent of control [6]: 100%
- kinase still bound, per cent of control [7]: 91%
- kinase still bound, per cent of control [8]: 96%
- kinase still bound, per cent of control [9]: 88%
- kinase still bound, per cent of control [10]: 100%
- kinase still bound, per cent of control [11]: 100%
- kinase still bound, per cent of control [12]: 85%
- kinase still bound, per cent of control [13]: 100%
- kinase still bound, per cent of control [14]: 91%
- kinase still bound, per cent of control [15]: 88%
- kinase still bound, per cent of control [16]: 100%
- kinase still bound, per cent of control [17]: 95%
- kinase still bound, per cent of control [18]: 100%
- kinase still bound, per cent of control [19]: 100%
- kinase still bound, per cent of control [20]: 82%
- kinase still bound, per cent of control [21]: 5.5%
- kinase still bound, per cent of control [22]: 42%
- kinase still bound, per cent of control [23]: 40%
- kinase still bound, per cent of control [24]: 100%
- kinase still bound, per cent of control [25]: 87%
- kinase still bound, per cent of control [26]: 100%
- kinase still bound, per cent of control [27]: 90%
- kinase still bound, per cent of control [28]: 76%
- kinase still bound, per cent of control [29]: 94%
- kinase still bound, per cent of control [30]: 99%
- kinase still bound, per cent of control [31]: 100%
- kinase still bound, per cent of control [32]: 100%
- kinase still bound, per cent of control [33]: 77%
- kinase still bound, per cent of control [34]: 91%
- kinase still bound, per cent of control [35]: 75%
- kinase still bound, per cent of control [36]: 88%
- kinase still bound, per cent of control [37]: 99%
- kinase still bound, per cent of control [38]: 100%
- kinase still bound, per cent of control [39]: 92%
- kinase still bound, per cent of control [40]: 99%
- kinase still bound, per cent of control [41]: 88%
